PMC5515279 (2014)

How the values were obtained:
[1] = test system: TA[Q] (DNA, G4) TAGGGTTAGGGTTAGGGTTAGGG; assay: fluorescence titration; conditions: K+ 0.1 M; 25 mM Tris-HCl pH 7.5, 1 mM EDTA, 18 °C; 0.5 μM compound
[2] = test system: rUA[Q] (RNA, G4) UAGGGUUAGGGUUAGGGUUAGGG; assay: fluorescence titration; conditions: K+ 0.1 M; 25 mM Tris-HCl pH 7.5, 1 mM EDTA, 18 °C (general conditions)

Structure (SMILES) | K11 [1] | binding constant [2] | Kd [1] [nM]
COc1cc2c(cc1OC)-c1cc3ccc4c(c3c[n+]1CC2)OCO4 | – | (1.2 ± 0.2) × 10^6 M^-1 | 37 ± 8
Cc1c2[n+](cc3c4c(ccc13)OCO4)CCc1cc3c(cc1-2)OCO3 | (5.1 ± 0.4) × 10^5 M^-1 | – | –
c1c2c(cc3c1OCO3)-c1cc3ccc4c(c3c[n+]1CC2)OCO4 | (1.4 ± 0.5) × 10^6 M^-1 | – | –

Further lines, results first:

K11 [1] | binding constant [2] | Kd [1] [nM] | Structure (SMILES)
(4.1 ± 0.4) × 10^5 M^-1 | – | – | COc1cc2c(cc1OC)-c1cc3ccc(OC)c(OC)c3c[n+]1CC2
(4.1 ± 0.4) × 10^5 M^-1 | – | – | COc1ccc2cc3[n+](cc2c1OC)CCc1cc2c(cc1-3)OCO2
